Experimental data from ChEMBL document CHEMBL5375995, “Discovery and Mechanistic Study of Novel Mycobacterium tuberculosis ClpP1P2 Inhibitors” (J Med Chem, 2023).
Activity calls are given as the source filed them. The calls are words filed in the database; no cut-off is given here.

Tests used:
[1] = tested on: ClpP1P2 (Mycobacterium tuberculosis (strain ATCC 25618 / H37Rv)), P9WPC5+P9WPC3 [M95Q]; test: Inhibition of Mtb ClpP1 M95Q mutant expressed in Escherichia coli BL21(DE3)
[2] = tested on: ClpP1P2 (Mycobacterium tuberculosis (strain ATCC 25618 / H37Rv)), P9WPC5+P9WPC3 [I146V]; test: Inhibition of Mtb ClpP1 I146V mutant expressed in Escherichia coli BL21(DE3)
[3] = target: ClpP1P2 (Mycobacterium tuberculosis (strain ATCC 25618 / H37Rv), UniProt P9WPC3+P9WPC5, H117N); test: Inhibition of Mtb ClpP1 H117N mutant expressed in Escherichia coli BL21(DE3)
[4] = target: ClpP1P2 (Mycobacterium tuberculosis (strain ATCC 25618 / H37Rv), UniProt P9WPC3+P9WPC5, Q142H); test: Inhibition of Mtb ClpP1 Q142H mutant expressed in Escherichia coli BL21(DE3)
[5] = target: ClpP1P2 (Mycobacterium tuberculosis (strain ATCC 25618 / H37Rv), UniProt P9WPC3+P9WPC5, R119S); test: Inhibition of Mtb ClpP1 R119S mutant expressed in Escherichia coli BL21(DE3)
[6] = target: ClpP1P2 (Mycobacterium tuberculosis (strain ATCC 25618 / H37Rv), UniProt P9WPC3+P9WPC5, E149Q); test: Inhibition of Mtb ClpP1 E149Q mutant expressed in Escherichia coli BL21(DE3)
[7] = tested on: ClpP1P2 (Mycobacterium tuberculosis (strain ATCC 25618 / H37Rv)), P9WPC5+P9WPC3 [M95S]; test: Inhibition of Mtb ClpP1 M95S mutant expressed in Escherichia coli BL21(DE3)
[8] = target: ClpP1P2 (Mycobacterium tuberculosis (strain ATCC 25618 / H37Rv), UniProt P9WPC3+P9WPC5, W174A); test: Inhibition of Mtb ClpP1 W174A mutant expressed in Escherichia coli BL21(DE3)
[9] = tested on: ClpP1P2 (Mycobacterium tuberculosis (strain ATCC 25618 / H37Rv)), P9WPC5+P9WPC3 [W174F]; test: Inhibition of Mtb ClpP1 W174F mutant expressed in Escherichia coli BL21(DE3)
[10] = tested on: ClpP1P2 (Mycobacterium tuberculosis (strain ATCC 25618 / H37Rv)), P9WPC5+P9WPC3 [M75A]; test: Inhibition of Mtb ClpP1 M75A mutant expressed in Escherichia coli BL21(DE3)
[11] = tested on: ClpP1P2 (Mycobacterium tuberculosis (strain ATCC 25618 / H37Rv)), P9WPC5+P9WPC3 [M95A]; test: Inhibition of Mtb ClpP1 M95A mutant expressed in Escherichia coli BL21(DE3)
[12] = target: ClpP1P2 (Mycobacterium tuberculosis (strain ATCC 25618 / H37Rv), UniProt P9WPC3+P9WPC5, E149T); test: Inhibition of Mtb ClpP1 E149T mutant expressed in Escherichia coli BL21(DE3)
[13] = target: ClpP1P2 (Mycobacterium tuberculosis (strain ATCC 25618 / H37Rv), UniProt P9WPC3+P9WPC5, I146L); test: Inhibition of Mtb ClpP1 I146L mutant expressed in Escherichia coli BL21(DE3)
[14] = target: ClpP1P2 (Mycobacterium tuberculosis (strain ATCC 25618 / H37Rv), UniProt P9WPC3+P9WPC5, I146T); test: Inhibition of Mtb ClpP1 I146T mutant expressed in Escherichia coli BL21(DE3)
[15] = target: ClpP1P2 (Mycobacterium tuberculosis (strain ATCC 25618 / H37Rv), UniProt P9WPC3+P9WPC5, Q142R); test: Inhibition of Mtb ClpP1 Q142R mutant expressed in Escherichia coli BL21(DE3)
[16] = tested on: ClpP1P2 (Mycobacterium tuberculosis (strain ATCC 25618 / H37Rv)), P9WPC5+P9WPC3 [M75L]; test: Inhibition of Mtb ClpP1 M75L mutant expressed in Escherichia coli BL21(DE3)
[17] = target: ClpP1P2 (Mycobacterium tuberculosis (strain ATCC 25618 / H37Rv), UniProt P9WPC3+P9WPC5, H117A); test: Inhibition of Mtb ClpP1 H117A mutant expressed in Escherichia coli BL21(DE3)
[18] = target: ClpP1P2 (Mycobacterium tuberculosis (strain ATCC 25618 / H37Rv), UniProt P9WPC3+P9WPC5, W174I); test: Inhibition of Mtb ClpP1 W174I mutant expressed in Escherichia coli BL21(DE3)
[19] = target: ClpP1P2 (Mycobacterium tuberculosis (strain ATCC 25618 / H37Rv), UniProt P9WPC3+P9WPC5, M95L); test: Inhibition of Mtb ClpP1 M95L mutant expressed in Escherichia coli BL21(DE3)
[20] = tested on: ClpP1P2 (Mycobacterium tuberculosis (strain ATCC 25618 / H37Rv)), P9WPC5+P9WPC3 [M75F]; test: Inhibition of Mtb ClpP1 M75F mutant expressed in Escherichia coli BL21(DE3)
[21] = tested on: ClpP1P2 (Mycobacterium tuberculosis (strain ATCC 25618 / H37Rv)), P9WPC5+P9WPC3 [I146M]; test: Inhibition of Mtb ClpP1 I146M mutant expressed in Escherichia coli BL21(DE3)
[22] = target: ClpP1P2 (Mycobacterium tuberculosis (strain ATCC 25618 / H37Rv), UniProt P9WPC3+P9WPC5, E149K); test: Inhibition of Mtb ClpP1 E149K mutant expressed in Escherichia coli BL21(DE3)
[23] = tested on: ClpP1P2 (Mycobacterium tuberculosis (strain ATCC 25618 / H37Rv)), P9WPC5+P9WPC3 [R119Q]; test: Inhibition of Mtb ClpP1 R119Q mutant expressed in Escherichia coli BL21(DE3)
[24] = target: ClpP1P2 (Mycobacterium tuberculosis (strain ATCC 25618 / H37Rv), UniProt P9WPC3+P9WPC5, I71F); test: Inhibition of Mtb ClpP1 I71F mutant expressed in Escherichia coli BL21(DE3)
[25] = target: ClpP1P2 (Mycobacterium tuberculosis (strain ATCC 25618 / H37Rv), UniProt P9WPC3+P9WPC5, E149R); test: Inhibition of Mtb ClpP1 E149R mutant expressed in Escherichia coli BL21(DE3)
[26] = tested on: ClpP1P2 (Mycobacterium tuberculosis (strain ATCC 25618 / H37Rv)), P9WPC5+P9WPC3 [I71V]; test: Inhibition of Mtb ClpP1 I71V mutant expressed in Escherichia coli BL21(DE3)
[27] = Selectivity index, ratio of IC50 for full-length Staphylococcus aureus ClpP complex/Escherichia coli ClpX delta N mutant (62 to 425 residues) expressed in Escherichia coli BL21(DE3) using FITC-casein as substrate to IC50 for N-terminal His6-SUMO-tagged Mtb ClpP1 (7 to 200 residues)/ClpP2 (13 to 214 residues) complex expressed in Escherichia coli BL21(DE3)
[28] = target: ClpP1P2 (Mycobacterium tuberculosis (strain ATCC 25618 / H37Rv), UniProt P9WPC3+P9WPC5, S72T); test: Inhibition of Mtb ClpP1 S72T mutant expressed in Escherichia coli BL21(DE3)
[29] = tested on: ClpP1P2 (Mycobacterium tuberculosis (strain ATCC 25618 / H37Rv)), P9WPC5+P9WPC3 [R119E]; test: Inhibition of Mtb ClpP1 R119E mutant expressed in Escherichia coli BL21(DE3)
[30] = tested on: ClpP1P2 (Mycobacterium tuberculosis (strain ATCC 25618 / H37Rv)), P9WPC5+P9WPC3 [E149L]; test: Inhibition of Mtb ClpP1 E149L mutant expressed in Escherichia coli BL21(DE3)
[31] = target: ClpP1P2 (Mycobacterium tuberculosis (strain ATCC 25618 / H37Rv), UniProt P9WPC3+P9WPC5, M95W); test: Inhibition of Mtb ClpP1 M95W mutant expressed in Escherichia coli BL21(DE3)

COc1cc2c(Oc3ccc4[nH]c(C)cc4c3F)ncnc2cc1OCCCN1CCCC1 [CEDIRANIB]
inhibition [1]: inactive | inhibition [2]: inactive | IC50 [3]: > 50 µM | IC50 [4]: 14.4 µM | IC50 [5]: 42.2 µM | IC50 [6]: 6.3 µM | inhibition [7]: inactive | IC50 [8]: 20.2 µM | inhibition [9]: inactive | inhibition [10]: Active | inhibition [11]: Active | IC50 [12]: 7.6 µM | IC50 [13]: 9.7 µM | IC50 [14]: 5.1 µM | IC50 [15]: 9.5 µM | inhibition [16]: inactive | IC50 [17]: 4.4 µM | IC50 [18]: 12.8 µM | IC50 [19]: 23.7 µM | inhibition [20]: inactive | inhibition [21]: inactive | IC50 [22]: > 100 µM | inhibition [23]: inactive | IC50 [24]: 3.4 µM | IC50 [25]: 41.8 µM | inhibition [26]: inactive | Ratio IC50 [27]: 9.6 | IC50 [28]: > 54.5 µM | inhibition [29]: inactive | inhibition [30]: inactive | IC50 [31]: 7.5 µM
